Key:
[1] = system: polymorphonuclear cells; test: Marker expression (immunohistochemistry) in polymorphonuclear blood cells with SP alone or with NK1 antagonists; type: cell-based, human; conditions: SP 1 μM + antagonist 1 μM; 48 h
From the text: Briefly, heparinized blood from healthy donors was centrifuged so as to separate the various components thereof. Red blood cells remained at the bottom of the tube. Above them was a small white layer composed of the white blood cells and above, on top of the tube, the blood plasma. The layer of white cells was distributed in a culture plate of 24 wells by adding in each the same concentration of blood plasma from the same donor, supplemented with 1% antibiotic-antimycotic (Invitrogen). In each well, approximately 1000 cells (PHF) skin from the dermis were further added, obtained as previously described in Example 2. […] After 48 hours of incubation, cells were collected and embedded in paraffin for expression analysis by immunohistochemical techniques (as described in Example 1).
The expression of TGF molecular markers (anti-TGF 2, SAB4502956) and NF-kB (anti-NF-kB, SAB4501992) using specific antibodies against them were analyzed. All antibodies used were rabbit polyclonal antibodies obtained from Sigma Aldrich and were used at a concentration of 1/1000. All experiments were carried out sixfold.

[2] = system: human primary macrophages (PHM); test: Marker expression (immunohistochemistry) in human primary macrophages with SP alone or with NK1 antagonists; type: cell-based; conditions: SP 1 μM + antagonist 1 μM; 48 h
Method: In this sense the next step was to analyze the effect exerted by the treatment with non-peptide NK1 antagonists in human primary macrophages (PHM) obtained and purified from pleural effusion samples obtained from men with chronic age range between 45 and 55 years. Briefly, the pleural fluid from chronic (rich in macrophages) was centrifuged.
After 48 hours of culture, cells were harvested and cellular paraffin blocks were constructed for immunohistochemical analysis (see Example 1). To analyze the expression of markers EGF, MMP-9, VEGF and IL-8 antibodies were used as follows: EGF (rabbit monoclonal antibody, anti-EGF; 07-1432. Merck-Millipore), MMP-9 (polyclonal rabbit anti-MMP-9: SAB4501896, Sigma-Aldrich), VEGF (mouse monoclonal anti-VEGF, GF25-100UG, Merck-Millipore) and TNF-α (mouse monoclonal anti-TNF-α, number MAB 1021 catalogue, obtained from Merck-Millipore). All of these antibodies were used at a concentration of 1/1000. System for labelling with a secondary antibody specific for the primary antibodies obtained from rabbit or mouse was used, as was necessary in each case, both the Envision (Dako). All experiments were carried out sixfold.

[3] = system: fibroblasts (PHF) co-cultured with tumor cells, ovarian carcinoma (EFO-27); test: Marker expression (IHC) in PHF co-cultured with EFO-27 tumor cells; type: cell-based, human; conditions: co-culture with EFO-27; SP 1 μM + antagonist 1 μM; 48 h;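 further: values are the percentage of PHF fibroblasts positive for each marker, cultured in fresh plasma from a healthy human donor, each experiment run in six replicates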
Method: (§1) All cultures were maintained 48 hours, following which the same cells were included in paraffin blocks for subsequent analysis of the expression of different markers by immunohistochemistry (see Example 1). […] All experiments were carried out sixfold. Analyzed markers in fibroblast cells (stromal cells) were: TGF-α, TGF-β1, TGF-β2, TGF-β3, SPARC, MMP-3, MMP-7, MMP-9, MMP-11, MMP-13 and MMP-14.

[4] = system: fibroblasts (PHF) co-cultivated with tumor cell carcinoma of urinary bladder (5637); test: Marker expression (IHC) in PHF co-cultured with 5637 tumor cells; type: cell-based, human; conditions: co-culture with 5637; SP 1 μM + antagonist 1 μM; 48 h
Method: as §1

[5] = system: fibroblasts (PHF) cells co-cultured with human T lymphoma tumor (DERL-7); test: Marker expression (IHC) in PHF co-cultured with DERL-7 tumor cells; type: cell-based; conditions: PHF co-cultured with DERL-7 + SP + NK1 antagonist
Method: All cultures were maintained 48 hours, following which the same cells were included in paraffin blocks for subsequent analysis of the expression of different markers by immunohistochemistry (see Example 1). The primary antibodies used to perform immunohistochemical assays and their concentration are detailed in Example 2. All experiments were carried out sixfold. Analyzed markers in fibroblast cells (stromal cells) were: TGF-α, TGF-β1, TGF-β2, TGF-β3, SPARC, MMP-3, MMP-7, MMP-9, MMP-11, MMP-13 and MMP-14.

[6] = system: fibroblasts of tumors produced by lung carcinoma non small cell human (HCC-44) cells; test: Marker expression (IHC) in fibroblasts of tumor or peritumoral area, mouse model, HCC-44; type: in vivo; conditions: HCC-44 tumors in mice, 30 mg/kg/day oral, 7 days
Method: Subsequently, the expression in fibroblasts tumoral and peritumoral area of molecular markers associated with progression and maintenance of tumors: TGF-α, TGF-β1, TGF-β2, TGF-β3, MMP-7, MMP-11, MMP-14 were analyzed by immunohistochemistry.
Were injected with 2×10^7 cells tumors (corresponding, in each case to each of the tumor types as specified in Table 9) in 200 of PBS subcutaneously μl. […] Mice were randomized into two groups when the tumors reached a volume of 75 mm^3 One group was treated with non-peptide receptor antagonists NK1 and the other with placebo 200μ1. […] Tumors and samples of non-neoplastic stromal areas remote from the tumor were halved, formalin fixed (4%) and then were included in paraffin blocks for analysis by immunohistochemistry.
The expression on fibroblast cells obtained in the animal model was analyzed by immunohistochemistry, of the above markers: TGF-α, TGF-β1, TGF-β2, TGF-β3, MMP-7, MMP-1 1, MMP-14MP-14. […] This process was realized in mice treated with non-peptide antagonists of NK1 receptor and in untreated animals (control).

[7] = system: fibroblast cells in co-culture with cells isolated from primary human tumors; test: Marker expression (IHC) in fibroblasts co-cultured with primary human tumor cells (colon, pancreatic, lung carcinoma, glioma, multiple myeloma); type: cell-based
[8] = Primary tumor cells (colon carcinoma) co-cultured + fibroblast + SP (1 μM) + NK1 antagonist 1 μM
[9] = co-culture with cells isolated from glioma, SP 1 μM + antagonist 1 μM
[10] = co-culture with cells isolated from lung cancer, SP 1 μM + antagonist 1 μM
[11] = co-culture with cells isolated from multiple myeloma, SP 1 μM + antagonist 1 μM
[12] = co-culture with cells isolated from pancreatic carcinoma, SP 1 μM + antagonist 1 μM

CC(=O)N1CCN([C@H]2CCN(C(=O)N(C)[C@H](C)c3cc(C(F)(F)F)cc(C(F)(F)F)c3)[C@@H](c3ccc(F)cc3C)C2)CC1 [Casopitant]
0%: polymorphonuclear cells expressing NF-kB [1] | polymorphonuclear cells expressing TGF-β [1] | macrophages expressing EGF [2] | macrophages expressing MMP-9 [2] | macrophages expressing VEGF [2] | PHF cells expressing MMP-3 [3] | PHF cells expressing MMP-7 [3] | PHF cells expressing MMP-9 [3] | PHF cells expressing MMP-11 [3] | PHF cells expressing MMP-13 [3] | PHF cells expressing MMP-14 [3] | PHF cells expressing SPARC [3] | PHF cells expressing TGF-α [3] | PHF cells expressing TGF-β1 [3] | PHF cells expressing TGF-β2 [3] | PHF cells expressing TGF-β3 [3] | PHF cells expressing MMP-3 [4] | PHF cells expressing MMP-7 [4] | PHF cells expressing MMP-9 [4] | PHF cells expressing MMP-11 [4] | PHF cells expressing MMP-13 [4] | PHF cells expressing MMP-14 [4] | PHF cells expressing SPARC [4] | PHF cells expressing TGF-α [4] | PHF cells expressing TGF-β1 [4] | PHF cells expressing TGF-β2 [4] | PHF cells expressing TGF-β3 [4] | cells expressing MMP-3 [5] | cells expressing MMP-7 [5] | cells expressing MMP-9 [5] | cells expressing MMP-11 [5] | cells expressing MMP-13 [5] | cells expressing MMP-14 [5] | cells expressing SPARC [5] | cells expressing TGF-α [5] | cells expressing TGF-β1 [5] | cells expressing TGF-β2 [5] | cells expressing TGF-β3 [5] | fibroblasts expressing MMP-7 [6] | fibroblasts expressing MMP-11 [6] | fibroblasts expressing MMP-14 [6] | fibroblasts expressing TGF-α [6] | fibroblasts expressing TGF-β 1 [6] | fibroblasts expressing TGF-β 2 [6] | fibroblasts expressing TGF-β 3 [6] | Percentage of fibroblast cells which expressed MMP-3 [7, 8] | Percentage of fibroblast cells which expressed MMP-7 [7, 8] | Percentage of fibroblast cells which expressed MMP-9 [7, 8] | Percentage of fibroblast cells which expressed MMP-11 [7, 8] | Percentage of fibroblast cells which expressed MMP-13 [7, 8] | Percentage of fibroblast cells which expressed MMP-14 [7, 8] | Percentage of fibroblast cells which expressed SPARC [7, 8] | Percentage of fibroblast cells which expressed TGFα [7, 8] | Percentage of fibroblast cells which expressed TGFβ1 [7, 8] | Percentage of fibroblast cells which expressed TGFβ2 [7, 8] | Percentage of fibroblast cells which expressed TGFβ3 [7, 8] | Percentage of fibroblast cells which expressed MMP-3 [7, 9] | Percentage of fibroblast cells which expressed MMP-7 [7, 9] | Percentage of fibroblast cells which expressed MMP-9 [7, 9] | Percentage of fibroblast cells which expressed MMP-11 [7, 9] | Percentage of fibroblast cells which expressed MMP-13 [7, 9] | Percentage of fibroblast cells which expressed MMP-14 [7, 9] | Percentage of fibroblast cells which expressed SPARC [7, 9] | Percentage of fibroblast cells which expressed TGFα [7, 9] | Percentage of fibroblast cells which expressed TGFβ1 [7, 9] | Percentage of fibroblast cells which expressed TGFβ2 [7, 9] | Percentage of fibroblast cells which expressed TGFβ3 [7, 9] | Percentage of fibroblast cells which expressed MMP-3 [7, 10] | Percentage of fibroblast cells which expressed MMP-7 [7, 10] | Percentage of fibroblast cells which expressed MMP-9 [7, 10] | Percentage of fibroblast cells which expressed MMP-11 [7, 10] | Percentage of fibroblast cells which expressed MMP-13 [7, 10] | Percentage of fibroblast cells which expressed MMP-14 [7, 10] | Percentage of fibroblast cells which expressed SPARC [7, 10] | Percentage of fibroblast cells which expressed TGFα [7, 10] | Percentage of fibroblast cells which expressed TGFβ1 [7, 10] | Percentage of fibroblast cells which expressed TGFβ2 [7, 10] | Percentage of fibroblast cells which expressed TGFβ3 [7, 10] | Percentage of fibroblast cells which expressed MMP-3 [7, 11] | Percentage of fibroblast cells which expressed MMP-7 [7, 11] | Percentage of fibroblast cells which expressed MMP-9 [7, 11] | Percentage of fibroblast cells which expressed MMP-11 [7, 11] | Percentage of fibroblast cells which expressed MMP-13 [7, 11] | Percentage of fibroblast cells which expressed MMP-14 [7, 11] | Percentage of fibroblast cells which expressed SPARC [7, 11] | Percentage of fibroblast cells which expressed TGFα [7, 11] | Percentage of fibroblast cells which expressed TGFβ1 [7, 11] | Percentage of fibroblast cells which expressed TGFβ2 [7, 11] | Percentage of fibroblast cells which expressed TGFβ3 [7, 11] | Percentage of fibroblast cells which expressed MMP-3 [7, 12] | Percentage of fibroblast cells which expressed MMP-7 [7, 12] | Percentage of fibroblast cells which expressed MMP-9 [7, 12] | Percentage of fibroblast cells which expressed MMP-11 [7, 12] | Percentage of fibroblast cells which expressed MMP-13 [7, 12] | Percentage of fibroblast cells which expressed MMP-14 [7, 12] | Percentage of fibroblast cells which expressed SPARC [7, 12] | Percentage of fibroblast cells which expressed TGFα [7, 12] | Percentage of fibroblast cells which expressed TGFβ1 [7, 12] | Percentage of fibroblast cells which expressed TGFβ2 [7, 12] | Percentage of fibroblast cells which expressed TGFβ3 [7, 12]

Reference: patent publication US20180071317A1, “USE OF AGENTS THAT ALTER THE PERITUMORAL ENVIRONMENT FOR THE TREATMENT OF CANCER” (SERVICIO ANDALUZ DE SALUD, priority 2011, published 2018)
